Data on two compounds can be found in patent publication US10654834B2 (Venenum Biodesign, LLC, priority 2016, dated 2020).

A short description of data set [1]: Absorption vs. first pass metabolism: Cmax in ICR mice with and without 1-aminobenzotriazole (ABT) pre-treatment. In kind it is in vivo, mouse. The settings on record: 10 mg/kg p.o., ABT 150 mg/kg 2 h before. On the procedure:
Absorption Vs. First Pass Metabolism
In this study, we further examined the absorption as compared to first pass metabolism of the compounds of the present invention. ICR mice (Hilltop) were pre-treated with 1-aminobenzotriazole (ABT), a nonselective inhibitor of cytochrome P450 enzymes, to inhibit Cyp450-mediated degradation of the compounds in liver.
ABT was administered at 150 mg/kg in 5 mL/kg of 0.04% ethanol in 0.5% methyl cellulose (w/v) by oral gavage, 2 hours prior to test compound administration. The compounds (i.e., Compounds 56, 268, 249, 61, 126, and 199) were administered by oral gavage at 10 mg/kg in 10 mL/kg of 20% PEG400/80% (0.5% (w/v) CMC containing 0.25% (v/v) Tween 80) (v/v), 2 hours after the ABT treatment. Blood was collected via orbital bleeding at predose, 0.25, 0.5, 1, 2, and 4 hours post-dose and the quantification of compound levels in plasma was accomplished by means of LC-MS/MS analysis as described in Example 81. Reference compound “Propranolol” that is known to be metabolized by Cyp450 was used as a positive control.
FIG. 15 depicts the Cmax (nM) of the compounds of the present invention with and without ABT pre-treatment.

Data set [2] in a line: 6-week DEXA body composition analysis in DIO mice. The conditions noted are these: 6 weeks BID dosing. In kind it is in vivo, mouse. The text has this: In the next series of studies (Examples 93-99), Male DIO mice were received at 12 weeks of age (from Taconic), and were single-housed at the testing facility and acclimated for at least 2 weeks. The mice were provided a high fat diet [Research Diet D12492 (60% Fat kcal)] while in the testing facility. Before the study initiation, the animals were randomized into 5 experimental groups by body weight. The vehicle group contained only 0.5% carboxymethylcellulose (medium viscosity)+0.25% Tween-80. The second group contained 10 mg/kg of the DPP-IV inhibitor Sitagliptin while the third group contained 30 mg/kg Compound 268. The fourth group contained the combination of 10 mg/kg Sitagliptin and 30 mg/kg Compound 268. The fifth group was the positive control for weight loss, Rimonabant. All mice were dosed BID at approximately 6:00 am and again at approximately 4:00 pm. The positive control rimonabant was administered at a dose of 10 mg/kg in the afternoon and the morning dosing was vehicle (no compound).
6-Week Dexa Analysis after Multiple Weeks of Dosing Compounds
Compounds of the present invention were dosed for multiple weeks and the mice were analyzed to determine whether weight loss seen in Example 93 was due to a loss in fat or lean mass.
In this example, the protocol from Example 93 was utilized. The day of experiment, the mice were anesthetized using 2.5% avertin [tert-amyl alcohol (Aldrich #15,256-3) and 2,2,2-tribromoethanol (Aldrich # T4, 840-2)]. Their body composition was assessed using the PIXImus2 X-ray unit (GE Lunar Corporation, Madison, Wis.) connected to a computer equipped with LUNAR PIXImus2 software. The head region of each mouse was excluded from the analysis. The following measurements were automatically measured or calculated by the PIXImus2 software: bone mineral density (BMD), bone mineral content (BMC), bone area (B Area), tissue area (T Area), percent fat, and total tissue mass (TTM). Fat mass, the percentage of lean mass, and lean mass, were calculated manually as follows: % Lean=100−% Fat Lean Mass=TTM×(100−% Fat) Fat Mass=TTM×% Fat

On to `CC(C)NCC(O)COc1cccc2ccccc12` (stereo not drawn) [propranolol, Propranolol], for which, in data set [1], the “Cmax with versus without ABT pre-treatment” value was “significantly higher in ABT pre-treated mice”. Consider `N[C@@H](CC(=O)N1CCn2c(nnc2C(F)(F)F)C1)Cc1cc(F)c(F)cc1F` [sitagliptin, Sitagliptin, reference compound], for which, in data set [2], the “fat mass versus lean mass (DEXA)” value is listed as “due to a loss in the Fat Mass” and the “loss in weight / total tissue mass (DEXA)” value is recorded as “about the same loss in weight”.
